Measurements reported in patent US20090143285A1, “TARGET PROTEIN AND TARGET GENE FOR DRUG DISCOVERY AND SCREENING METHOD” (REVERSE PROTEOMICS RESEARCH INSTITUTE CO., LTD., priority 2005, published 2009).
“Also recorded” adds a separate entry of the source.

Test system: FLJXXXXX-derived proteins
Experiment: SEC/MS spin column interaction analysis of FLJXXXXX-derived proteins and various compounds (Tables 30-1 to 30-4)
Type: binding, human
Conditions: not given

| Compound | FLJ No of the derived protein with which the compound was judged to exhibit a concentration-dependent interaction |
| --- | --- |
| CCCSc1ccc2nc(NC(=O)OC)[nH]c2c1 [albendazole] | FLJ35353 |

Same assay, conditions: SEC spin column filtrate, spectral intensity increased with doses of compound and protein

| Compound | FLJ No of the derived protein with which the compound was judged to exhibit a concentration-dependent interaction |
| --- | --- |
| Cl.Cl.OCCN1CCN(CCC=C2c3ccccc3Sc3ccc(C(F)(F)F)cc32)CC1 (mixture of isomers) [flupentixol] | FLJ37909 |
| c1ccc2c(c1)CCCc1cc(NCCN3CCOCC3)nnc1-2 [SR-95639A] | FLJ36526 |
| CC(=O)c1ccc2c(c1)N(CCCN(C)C)c1ccccc1S2 [acetopromazine] | FLJ36526 |
| CC(CN(C)C)CN1c2ccccc2Sc2ccccc21 (centres unmarked) [alimemazine] | FLJ37909 |
| NCC[C@H](O)C(=O)N[C@@H]1C[C@H](N)[C@@H](O[C@H]2O[C@H](CN)[C@@H](O)[C@H](O)[C@H]2O)[C@H](O)[C@H]1O[C@H]1O[C@H](CO)[C@@H](O)[C@H](N)[C@H]1O [amikacin] | FLJ37909 |
| CCCCc1oc2ccccc2c1C(=O)c1cc(I)c(OCCN(CC)CC)c(I)c1 [amiodarone] | FLJ37909 |
| O=c1cc(-c2ccc(O)cc2)oc2cc(O)cc(O)c12 [apigenin] | FLJ39553 |
| CCC(C)C1O[C@]2(C=C[C@@H]1C)C[C@@H]1CC(C/C=C(\C)[C@@H](OC3C[C@H](OC)[C@@H](OC4C[C@H](OC)[C@@H](O)[C@H](C)O4)[C@H](C)O3)[C@@H](C)/C=C/C=C3\COC4[C@H](O)C(C)=CC(C(=O)O1)[C@]34O)O2 (some centres unmarked) [avermectin B1A] | FLJ39553 |
| COc1c(O)cc2c(c1O)[C@@H]1O[C@H](CO)[C@@H](O)[C@H](O)[C@H]1OC2=O [bergenin] | FLJ39553 |
| CCCCC[C@](C)(O)/C=C/[C@@H]1[C@@H](C/C=C\CCCC(=O)O)[C@@H](O)C[C@H]1O [carboprost] | FLJ39553 |
| O=C(O)CCCc1ccc(N(CCCl)CCCl)cc1 [chlorambucil] | FLJ23466 |
| [H]/N=C(\N/C(=N/[H])NCCCCCCNC(=N)NC(=N)Nc1ccc(Cl)cc1)Nc1ccc(Cl)cc1 [chlorhexidine] | FLJ37909 |
| CN(C)CCCN1c2ccccc2Sc2ccc(Cl)cc21 [chlorpromazine] | FLJ35353 |
| C=C[C@H]1C[N@@]2CC[C@H]1C[C@@H]2[C@@H](O)c1ccnc2ccccc12 [cinchonine] | FLJ39553 |
| CN1C(=O)CC(=O)N(c2ccccc2)c2cc(Cl)ccc21 [clobazam] | FLJ35353 |
| CC(C)/N=c1\cc2n(-c3ccc(Cl)cc3)c3ccccc3nc-2cc1Nc1ccc(Cl)cc1 [clofazimine] | FLJ35353 |
| CCN(CC)CCOc1ccc(C(=C(Cl)c2ccccc2)c2ccccc2)cc1 [clomiphene] | FLJ37909 |
| CN(C)[C@@H]1C(O)=C(C(N)=O)C(=O)[C@@]2(O)C(O)=C3C(=O)c4c(O)ccc(Cl)c4[C@@H](O)[C@H]3C[C@@H]12 [demeclocycline] | FLJ39553 |
| CC(C)[C@@]1(NC(=O)[C@@H]2C[C@@H]3c4cccc5[nH]cc(c45)C[C@H]3N(C)C2)O[C@@]2(O)[C@@H]3CCCN3C(=O)[C@H](Cc3ccccc3)N2C1=O [dihydroergocristine] | FLJ37909 |
| CN1C[C@H](C(=O)N[C@]2(C)O[C@@]3(O)[C@@H]4CCCN4C(=O)[C@H](Cc4ccccc4)N3C2=O)C[C@@H]2c3cccc4[nH]cc(c34)C[C@H]21 [dihydroergotamine] | FLJ37909 |
| C[N+]1(C)CCC(=C(c2ccccc2)c2ccccc2)CC1 [diphemanil] | FLJ36526 |
| Cc1c(N(C)CS(=O)(=O)[O-])c(=O)n(-c2ccccc2)n1C.[Na+] [dipyrone] | FLJ35353 |
| O=c1[nH]c2ccccc2n1CCCN1CCC(n2c(=O)[nH]c3cc(Cl)ccc32)CC1 [domperidone] | FLJ20571 |
| COc1cc2nc(N3CCN(C(=O)C4COc5ccccc5O4)CC3)nc(N)c2cc1OC (centres unmarked) [doxazosin] | FLJ37909 |
| CC(=O)[C@H]1CC[C@H]2[C@@H]3C=CC4=CC(=O)CC[C@@]4(C)[C@@H]3CC[C@]12C [dydrogesterone] | FLJ35353 |
| Cc1c2ccncc2c(C)c2c1[nH]c1ccccc12 [ellipticine] | FLJ35353 |
| CC[C@H]1CN2CCc3cc(OC)c(OC)cc3[C@@H]2C[C@@H]1C[C@H]1NCCc2cc(OC)c(OC)cc21 [emetine] | FLJ37909 |
| CCN1C(=O)NC(c2ccccc2)C1=O (centres unmarked) [ethotoin] | FLJ38531 |

| Compound | FLJ No of the derived protein with which the compound was judged to exhibit a concentration-dependent interaction |
| --- | --- |
| CCOC(=O)C1N=C(c2ccccc2F)c2cc(Cl)ccc2NC1=O (centres unmarked) [ethyl loflazepate] | FLJ35353 |
| COC(=O)Nc1nc2ccc(Sc3ccccc3)cc2[nH]1 [fenbendazole] | FLJ37909 |
| CC1CCc2cc(F)cc3c(=O)c(C(=O)O)cn1c23 (centres unmarked) [flumequine] | FLJ38531 |
| Fc1ccc(C(c2ccc(F)cc2)N2CCN(C/C=C/c3ccccc3)CC2)cc1 [flunarizine] | FLJ37909 |
| Cc1cnc(C(=O)NCCc2ccc(S(=O)(=O)NC(=O)NC3CCCCC3)cc2)cn1 [glipizide] | FLJ35353 |
| COc1ccc2c3c([nH]c2c1)C(C)=NCC3 [harmaline] | FLJ39553 |
| O=C1CNC(=O)N1 [hydantoin] | FLJ35914 |
| CC(=O)[C@@]1(O)CC[C@H]2[C@@H]3CCC4=CC(=O)CC[C@]4(C)[C@H]3CC[C@@]21C [hydroxyprogesterone] | FLJ37909 |
| Cc1cccc(C)c1NC(=O)CN1CCN(CCCC(c2ccc(F)cc2)c2ccc(F)cc2)CC1 [lidoflazine] | FLJ37909 |
| NCCCC[C@H](N[C@@H](CCc1ccccc1)C(=O)O)C(=O)N1CCC[C@H]1C(=O)O [lisinopril] | FLJ40760 |
| NCc1ccc(S(N)(=O)=O)cc1 [mafenide] | FLJ21841 |
| Cc1cccc(Nc2ccccc2C(=O)O)c1C [mefenamic acid] | FLJ35353 |
| CN1CCCCC1CCN1c2ccccc2Sc2ccc([S+](C)[O-])cc21 (centres unmarked) [mesoridazine] | FLJ11211 |
| CN1C[C@H](CNC(=O)OCc2ccccc2)C[C@@H]2c3cccc4c3c(cn4C)C[C@H]21 [metergoline] | FLJ37909 |
| CN1CCCC(CC2c3ccccc3Sc3ccccc32)C1 (centres unmarked) [methixene] | FLJ35353 |
| COc1ccc2[nH]c3c(c2c1)CCN=C3C [methoxy-6-harmalan] | FLJ39553 |
| Cc1cc(C(C)(C)CC(C)(C)C)ccc1OCCOCC[N+](C)(C)Cc1ccccc1.[Cl-] [methylbenzethonium chloride] | FLJ20571; also recorded: FLJ35353 |
| Cc1cc2c(cc1S(N)(=O)=O)S(=O)(=O)CCC2 [meticrane] | FLJ39553 |
| CC#C[C@]1(O)CC[C@H]2[C@@H]3CCC4=CC(=O)CCC4=C3[C@@H](c3ccc(N(C)C)cc3)C[C@@]21C [mifepristone] | FLJ22317 |
| CCOc1ccc2ccccc2c1C(=O)N[C@@H]1C(=O)N2[C@@H]1SC(C)(C)[C@@H]2C(=O)O [nafcillin] | FLJ39553 |
| CC1CCCC(C)N1 (stereo not drawn) [nanofin (cis), nanofin] | FLJ42665 |
| O=C1CN=C(c2ccccc2)c2cc(Cl)ccc2N1 [nordiazepam] | FLJ35353 |
| CN(C(=O)CN(CCO)CC(=O)N(C)C(C)(C)Cc1ccccc1)C(C)(C)Cc1ccccc1 [oxethazaine] | FLJ37909 |
| CCn1cc(C(=O)O)c(=O)c2cc3c(cc21)OCO3 [oxolinic acid] | FLJ37909 |
| CC(=O)O[C@H]1C(=O)[C@@]2(C)[C@H]([C@H](OC(=O)c3ccccc3)[C@]3(O)C[C@H](OC(=O)[C@H](O)[C@@H](NC(=O)c4ccccc4)c4ccccc4)C(C)=C1C3(C)C)[C@]1(OC(C)=O)CO[C@@H]1C[C@@H]2O [paclitaxel] | FLJ39553 |
| COc1cc2c(cc1OC)-c1cc3ccc(OC)c(OC)c3c[n+]1CC2 [palmatine] | FLJ39553 |
| C[C@@H]1C[C@H]2[C@@H]3C[C@H](F)C4=CC(=O)C=C[C@]4(C)[C@H]3[C@@H](O)C[C@]2(C)[C@@]1(O)C(=O)CO [paramethasone] | FLJ39553 |
